Patent publication US9212189B2, “Fluorescent probes for reactive sulfur species” (THE REGENTS OF THE UNIVERSITY OF CALIFORNIA, priority 2011, dated 2015)

Columns and labels:
[1] = Fluorescence response of 4-azido-1,8-naphthalimide to H2S
Protocol: FIG. 8. Fluorescence response of 10 μM 4-azido-1,8-naphthalimide to 100 μM H2S. Data were acquired at 25° C. in 20 mM HEPES buffered to pH 7.4 with excitation at λex=470 nm. Emission was collected between 495 and 650 nm. Time points represent 0, 15, 30, 45, and 60 min (red trace) after addition of 100 μM H2S. Reactions are not complete at these time points.

[2] = Fluorescence response of probe to H2S (NaSH) in HEPES buffer; conditions: 10 μM probe, 100 μM NaSH, after one hour of reaction
Protocol: (§1) Millipore water was used to prepare all aqueous solutions. All spectroscopic measurements were performed in 20 mM HEPES buffer, pH 7.4. Fluorescence spectra were recorded on a Photon Technology International Quanta Master 4 L-format scanning spectrofluorometer (Lawrenceville, N.J.) equipped with an LPS-220B 75-W xenon lamp and power supply, A-1010B lamp housing with an integrated igniter, switchable 814 photon-counting/analog photomultiplier detection unit, and MD5020 motor driver. Samples for emission measurements were contained in 1-cm×0.1-cm quartz (1.5 mL volume, Starna, Atascadero, Calif.). Absorption spectra were recorded using a Varian Cary 50 spectrophotometer (Walnut Creek, Calif.).
A 10 μM solution of SF1 or SF2 in 20 mM HEPES buffered to pH 7.4 was prepared from a 5 mM stock solution of SF1 or SF2 in DMF in a 1.5 mL eppendorf tube. 10 μL of 10 mM stock solution of NaSH in degassed (by bubbling N2 for ˜30 min) 20 mM HEPES buffered at pH 7.4 was added (for a final concentration of 100 μM) and the mixture was vortexed for 10 s and then transferred to a cuvette. Emission spectra (λex=488 nm, λex=498-700 nm) were collected at 10, 20, 30, 40, 50, and 60 min. The spectrum at t=0 was acquired from a 10 μM solution of SF1 or SF2 without the addition of NaSH.
FIG. 2. Fluorescence responses of (a) 10 μM SF1 and (b) 10 μM SF2 to 100 μM H2S. […]

HEK293T cells = assay: Confocal imaging of H2S detection in live HEK293T cells; type: cell-based; conditions: for intracellular fluorescence intensity after NaSH: 5 μM probe 30 min, then 250 μM NaSH 30 min, excitation 488 nm; for background response in untreated cells: absence of exogenous H2S; for cell viability over the course of the experiments: bright field images co-localized with Hoescht nuclear staining
Protocol: HEK 293T cells were maintained in exponential growth as a monolayer in Dulbecco's Modified Eagle Medium (DMEM, Invitrogen) supplemented with 10% fetal bovine serum (FBS, Hyclone), and incubated at 37° C. in 5% CO2. One or two days before imaging, the cells were passaged and plated in phenol red-free medium on 4-well Lab-Tek borosilicate chambered coverglass slides (Nunc) and allowed to grow to 50-70% confluence. For all experiments, solutions of SF1 and SF2 were prepared in DMF (5 mM) and diluted into DMEM at the desired working concentrations (5 μM). NaSH was delivered from a stock solution of 25 mM in degassed (by bubbling N2 for ˜30 min) Dulbecco's Phosphate Buffered Saline (DPBS). Cells were treated with SF1 or SF2 for one hour, with NaSH (50-250 μM) or blank control added for the final 30 minutes. Images were collected at 30 min after NaSH addition. For nuclear imaging studies, cells were incubated with 1 μM Hoechst 33342 at 37° C. for 30 min prior to imaging.
Confocal Imaging Experiments. Confocal fluorescence imaging studies were performed with a Zeiss laser scanning microscope 710 with a 40× water objective lens, with Zen 2009 software (Carl Zeiss). SF1 and SF2 were excited using a 488 nm Ar laser, and emission collected using a META detector between 500 and 650 nm. Hoechst 33342 was excited with a 405 nm diode laser, and emission collected using a META detector between 450 and 500 nm. The cells were imaged at 37° C. and 5% CO2 throughout the course of the experiment. Image analysis was performed using ImageJ (National Institute of Health).
FIG. 6. Confocal images of H2S detection in live HEK293T cells using SF1 and SF2. (a) HEK293T cells incubated with SF1 for 60 min at 37° C. (b) HEK293T cells incubated with SF1 for 60 min at 37° C. with 250 μM NaSH added for the final 30 min. (c) Brightfield images of the same field of cells in (b) overlaid with images of 1 μM Hoescht stain at 37° C. (d) HEK293T cells incubated with SF2 for 60 min at 37° C. (e) HEK293T cells incubated with SF2 for 60 min at 37° C. with 250 μM NaSH added for the final 30 min. (f) Brightfield images of the same field of cells in (e) overlaid with images of 1 μM Hoescht stain at 37° C. Scale bars represent […].
FIG. 7. Mean fluorescence intensity of confocal images of H2S detected in live HEK293T cells treated with 0, 50, 100, and 250 μM H2S. (a) HEK293T cells were incubated with SF1 for 60 min at 37° C. with the indicated amount of H2S added for the final 30 min. (b) HEK293T cells were incubated with SF2 for 60 min at 37° C. with the indicated amount of H2S added for the final 30 min. Data represent the mean fluorescence intensity of distinct fields (n=4). Error bars are ±s.e.m.

[3] = Selectivity tests: fluorescence responses to biologically relevant RSS, RNS and ROS; conditions: for turn-on response for H2S relative to other RSS, ROS and RNS: 10 μM probe, 20 mM HEPES pH 7.4; for selectivity for H2S over abundant biologically relevant thiols: 5 mM glutathione and 5 mM cysteine (50× the amount of H2S tested); for response to most biologically relevant ROS or RNS: H2O2, tBuOOH, OCl−, NO2−, NO; for fluorescence response to other relevant RSS: thiosulfate, thiocyanate, S-nitroso glutathione, lipoic acid
Protocol: Selectivities for the SF1 and SF2 probes were measured by fluorescence responses (λex=488 nm, λem=525 nm) at 0, 15, 30, 45, and 60 min. All assays were performed in 20 mM HEPES buffered to pH 7.4. • H2S: 10 μL of a 10 mM stock solution of NaSH in degassed HEPES was added to 10 μM SF1 or SF2 in HEPES with 0.2% DMF. • Glutathione and cysteine: 2 μL of 5 mM SF1 or SF2 in DMF was added to 998 μL 5 mM glutathione or cysteine HEPES. • Lipoic acid: 10 μL of a 10 mM stock solution of lipoic acid in HEPES was added to 990 μL of 10 μM SF1 or SF2 in HEPES with 0.2% DMF. • Na2SO3: 10 μL of a 10 mM stock solution of Na2SO3 in HEPES was added to 990 μL of 10 μM SF1 or SF2 in HEPES with 0.2% DMF. • NaS2O3: 10 μL of a 10 mM stock solution of NaS2O3 in HEPES was added to 990 μL of 10 μM SF1 or SF2 in HEPES with 0.2% DMF. • KSCN: 10 μL of a 10 mM stock solution of KSCN in HEPES was added to 990 μL of 10 μM SF1 or SF2 in HEPES with 0.2% DMF. • S-nitrosoglutathione:^S4 10 μL of a 10 mM stock solution of S-nitroso glutathione in HEPES was added to 990 μL of 10 μM SF1 or SF2 in HEPES with 0.2% DMF. • NaNO2: 10 μL of a 10 mM stock solution of NaNO2 in HEPES was added to 990 μL of 10 μM SF1 or SF2 in HEPES with 0.2% DMF. • NO: 5 μL of a 10 mM stock solution of Proli-NONOATE in degassed (by bubbling N2 for ˜30 min) 10 mM NaOH in HEPES was added to 995 μL of a degassed (by bubbling N2 for ˜30 min) solution of 10 μM SF1 or SF2 in HEPES with 0.2% DMF. • H2O2: 10 μL of a 10 mM stock solution of H2O2 in HEPES was added to 990 μL of 10 μM SF1 or SF2 in HEPES with 0.2% DMF. • O2^−: 100 μL of a saturated solution of KO2 in DMSO (˜1 mM) was added to 900 μL of 10 μM SF1 or SF2 in HEPES with 0.2% DMF. • ^tBuOOH: 10 μL of a 10 mM stock solution of tBuOOH in HEPES buffered to was added to 990 μL of 10 μM SF1 or SF2 in HEPES with 0.2% DMF. • HOCl: 10 μL of a 10 mM stock solution of HOCl in HEPES was added to 990 μL of 10 μM SF1 or SF2 in HEPES with 0.2% DMF.
FIG. 5. Fluorescence responses of (a) 10 μM SF1 and (b) 10 μM SF2 to biologically relevant RSS, RNS, and ROS. Bars represent relative responses at 525 nm at 0, 15, 30, 45, and 60 min after addition of RSS, RNS, or ROS. Data shown are for 5 mM glutathione, 5 mM cysteine, and 100 μM for other RSS, RNS, and ROS. Data were acquired in 20 mM HEPES buffered at pH 7.4 with excitation at λex=488 nm. 1. H2S; 2. glutathione; 3. cysteine; 4. lipoic acid; 5. Na2SO3; 6. NaS2O3; 7. KSCN; 8. S-nitroso glutathione; 9. NaNO2; 10. NO; 11. H2O2; 12. O2^−; 13. ^tBuOOH; 14. HOCl.

[4] = Spectroscopic properties (absorbance, emission, quantum yield); type: physicochemical; conditions: for absorption of the protected probe in the visible region: protected form, closed lactone conformation; for ε (extinction coefficient) of reaction product: at λmax; for Φ (quantum yield) of reaction product: fluorescein as standard, 20 mM HEPES pH 7.4; for λmax (absorbance) of reaction product: new absorbance band in the visible region; for λem of reaction product: product formed from 10 μM probe with 100 μM NaSH
Protocol: as §1
FIG. 1. Absorbance spectra of (a) 10 μM SF1 (b) 10 μM SF2, and 10 μM of rhodamine products (c) tert-butoxycarbonyl-rhodamine 110 and (d) morpholinourea-rhodamine 110.
Quantum yields were determined using fluorescein as a standard according to a published method.^S3 For each compound and fluorescein, the absorbance spectra were measured within an absorbance range of 0.01 to 0.1. The quantum yield was calculated according to the equation: Φsample=Φstandard (Gradsample/Gradstandard)[…], where Φ is the quantum yield, Φstandard=0.95 in 0.1 M NaOH, Grad is the slope of the plot of […], and η is the refractive index of the solvent.

Molecule	emission compared with SF1 and SF2 [1]	cellular permeability (HEK293T cells; live HEK293T cells)	turn-on response (fluorescence) [2]	intracellular fluorescence intensity after NaSH (HEK293T cells)	background response in untreated cells (HEK293T cells)	cell viability over the course of the experiments (HEK293T cells)	selectivity for H2S versus superoxide (O2−) [3]	turn-on response for H2S relative to other RSS, ROS and RNS [3]	selectivity for H2S over abundant biologically relevant thiols [3]	response to most biologically relevant ROS or RNS [3]	fluorescence response to other relevant RSS ([3]; sulfite)	absorption of the protected probe in the visible region [4]	staining of cellular nuclei (HEK293T cells; live HEK293T cells)	fluorescence properties in vitro as compared to SF1 ([3]; greater response to H2S, lower background reactivity, better selectivity versus glutathione, sulfite, O2−)	ε (extinction coefficient) of reaction product [4]	Φ (quantum yield) of reaction product [4]	λmax (absorbance) of reaction product [4]	λem of reaction product [4]
[N-]=[N+]=Nc1ccc2c3c(cccc13)C(=O)NC2=O [4-Azido-1,8-naphthalimide]	red-shifted emission																	
morpholinourea-rhodamine 110 [Product from SF2]															75,000 M^−1cm^−1	0.60	492 nm	525 nm
tert-butoxycarbonyl-rhodamine 110 [Product from SF1]															61,000 M^−1cm^−1	0.51	490 nm	525 nm

Further lines, with some results ahead:

emission compared with SF1 and SF2 [1]	cellular permeability (HEK293T cells; live HEK293T cells)	Molecule	turn-on response (fluorescence) [2]	intracellular fluorescence intensity after NaSH (HEK293T cells)	background response in untreated cells (HEK293T cells)	cell viability over the course of the experiments (HEK293T cells)	selectivity for H2S versus superoxide (O2−) [3]	turn-on response for H2S relative to other RSS, ROS and RNS [3]	selectivity for H2S over abundant biologically relevant thiols [3]	response to most biologically relevant ROS or RNS [3]	fluorescence response to other relevant RSS ([3]; sulfite)	absorption of the protected probe in the visible region [4]	staining of cellular nuclei (HEK293T cells; live HEK293T cells)	fluorescence properties in vitro as compared to SF1 ([3]; greater response to H2S, lower background reactivity, better selectivity versus glutathione, sulfite, O2−)	ε (extinction coefficient) of reaction product [4]	Φ (quantum yield) of reaction product [4]	λmax (absorbance) of reaction product [4]	λem of reaction product [4]
	exceptional cellular permeability	CC(C)(C)OC(=O)Nc1ccc2c(c1)Oc1cc(N=[N+]=[N-])ccc1C21OC(=O)c2ccccc21 (stereo not drawn) [SF1, Sulfidefluor-1]	7 fold	patent increase in intracellular fluorescence intensity	little background response	confirm the cell viability	good selectivity	selective turn-on response	high selectivity	do not respond	negligible or small fluorescence responses	no absorption features in the visible region						
	exceptional cellular permeability	[N-]=[N+]=Nc1ccc2c(c1)Oc1cc(NC(=O)N3CCOCC3)ccc1C21OC(=O)c2ccccc21 (stereo not drawn) [SF2, Sulfidefluor-2]	9 fold	patent increase in intracellular fluorescence intensity	little background response	confirm the cell viability	good selectivity	selective turn-on response	high selectivity	do not respond	negligible or small fluorescence responses	no absorption features in the visible region	significant staining of the cellular nuclei	more favorable fluorescence properties in vitro				
